# From ChEMBL document CHEMBL4411307, “N,N'-diaryl-bishydrazones in a biphenyl platform: Broad spectrum antifungal agents” (Eur J Med Chem, 2019)
# Activity calls are given as the source filed them. The calls are words filed in the database; no cut-off is given here.
# Columns and labels:
# [1] = tested on: BEAS-2B; assay: Cytotoxicity against human BEAS2B cells after 24 hrs by resazurin based assay; type: cell-based
# [2] = tested on: A549; assay: Cytotoxicity against human A549 cells after 24 hrs by resazurin based assay; type: cell-based; conditions: a549, 24 h
# [3] = Selectivity index, ratio of CC50 for human A549 cells to MIC for fluconazole/ITC-resistant Candida albicans ATCC MYA-1237; type: toxicity; conditions: read-out: Selectivity Index
# [4] = tested on: Candida albicans; assay: Antifungal activity against fluconazole/ITC-resistant Candida albicans ATCC 10231 measured after 48 hrs by CLSI M27-A3 protocol based method; type: functional; conditions: ATCC 10231, 48 h
# [5] = Hemolytic activity in mouse RBC at 3.9 ug/ml after 1 hr relative to control; type: ADME, cell-based, Erythrocyte; conditions: red blood cells (erythrocytes), read-out: Activity
# [6] = Selectivity index, ratio of CC50 for human A549 cells to MIC for fluconazole/ITC-resistant Candida albicans ATCC MYA-1003; type: toxicity; conditions: read-out: Selectivity Index
# [7] = Selectivity index, ratio of compound concentration showing <20 to <30% hemolysis in mouse RBC to MIC for Aspergillus nidulans ATCC 38163; type: toxicity; conditions: mouse red blood cells (RBC), read-out: Selectivity Index
# [8] = Hemolytic activity in mouse RBC at […] after 1 hr relative to control; type: ADME, cell-based, Erythrocyte; conditions: red blood cells (erythrocytes), read-out: Activity; further: tested at 0.48 µg/mL
# [9] = tested on: Listeria monocytogenes; assay: Antibacterial activity against Listeria monocytogenes; type: functional, organism-based
# [10] = Selectivity index, ratio of compound concentration showing <20 to <30% hemolysis in mouse RBC to MIC for Candida parapsilosis ATCC 22019; type: toxicity; conditions: mouse red blood cells (RBC), read-out: Selectivity Index
# [11] = tested on: Candida parapsilosis; assay: Antifungal activity against Candida parapsilosis ATCC 22019 measured after 48 hrs by CLSI M27-A3 protocol based method; type: functional; conditions: Lodderomyces parapsilosis, ATCC 22019, 48 h
# [12] = Selectivity index, ratio of compound concentration showing <20 to <30% hemolysis in mouse RBC to MIC for Aspergillus terreus ATCC MYA-3633; type: toxicity; conditions: mouse red blood cells (RBC), read-out: Selectivity Index
# [13] = Selectivity index, ratio of CC50 for human A549 cells to MIC for Candida krusei ATCC 6258; type: toxicity; conditions: read-out: Selectivity Index
# [14] = Selectivity index, ratio of compound concentration showing <20 to <30% hemolysis in mouse RBC to MIC for fluconazole/ITC-susceptible Candida albicans ATCC MYA-2876; type: toxicity; conditions: red blood cells (erythrocytes), read-out: Selectivity Index
# [15] = tested on: Aspergillus flavus; assay: Antifungal activity against Aspergillus flavus ATCC MYA-3631 measured after 48 hrs by CLSI M38-A2 protocol based method; type: functional; conditions: ATCC MYA-3631, 48 h
# [16] = tested on: Aspergillus terreus; assay: Antifungal activity against Aspergillus terreus ATCC MYA-3633 measured after 48 hrs by CLSI M38-A2 protocol based method; type: functional; conditions: ATCC MYA-3633, 48 h
# [17] = Hemolytic activity in mouse RBC at 31.3 ug/ml after 1 hr relative to control; type: ADME, cell-based, Erythrocyte; conditions: red blood cells (erythrocytes), read-out: Activity
# [18] = Selectivity index, ratio of compound concentration showing <20 to <30% hemolysis in mouse RBC to MIC for fluconazole/ITC-resistant Candida albicans ATCC 90819; type: toxicity; conditions: red blood cells (erythrocytes), read-out: Selectivity Index
# [19] = Selectivity index, ratio of CC50 for human A549 cells to MIC for Aspergillus terreus ATCC MYA-3633; type: toxicity; conditions: read-out: Selectivity Index
# [20] = Hemolytic activity in mouse RBC at […] ug/ml after 1 hr relative to control; type: ADME, cell-based, Erythrocyte; conditions: red blood cells (erythrocytes), read-out: Activity
# [21] = tested on: Candida albicans; assay: Antifungal activity against fluconazole/ITC-susceptible Candida albicans ATCC MYA-2310 measured after 48 hrs by CLSI M27-A3 protocol based method; type: functional; conditions: ATCC MYA-2310, 48 h
# [22] = Selectivity index, ratio of CC50 for human A549 cells to MIC for fluconazole/ITC-resistant Candida albicans ATCC 90819; type: toxicity; conditions: read-out: Selectivity Index
# [23] = tested on: Candida albicans; assay: Antifungal activity against fluconazole/ITC-resistant Candida albicans ATCC 64124 measured after 48 hrs by CLSI M27-A3 protocol based method; type: functional; conditions: ATCC 64124, 48 h
# [24] = Selectivity index, ratio of CC50 for human A549 cells to MIC for Candida glabrata ATCC 2001; type: toxicity; conditions: read-out: Selectivity Index
# [25] = tested on: Pichia kudriavzevii; assay: Antifungal activity against Candida krusei ATCC 6258 measured after 48 hrs by CLSI M27-A3 protocol based method; type: functional; conditions: ATCC 6258, 48 h
# [26] = Selectivity index, ratio of CC50 for human A549 cells to MIC for Aspergillus nidulans ATCC 38163; type: toxicity; conditions: read-out: Selectivity Index
# [27] = Selectivity index, ratio of compound concentration showing <20 to <30% hemolysis in mouse RBC to MIC for fluconazole/ITC-susceptible Candida albicans ATCC MYA-2310; type: toxicity; conditions: mouse red blood cells (RBC), read-out: Selectivity Index
# [28] = Selectivity index, ratio of CC50 for human A549 cells to MIC for fluconazole/ITC-susceptible Candida albicans ATCC MYA-2876; type: toxicity; conditions: read-out: Selectivity Index
# [29] = tested on: Candida albicans; assay: Antifungal activity against fluconazole/ITC-susceptible Candida albicans ATCC MYA-2876 measured after 48 hrs by CLSI M27-A3 protocol based method; type: functional; conditions: ATCC MYA-2876, 48 h
# [30] = Selectivity index, ratio of compound concentration showing <20 to <30% hemolysis in mouse RBC to MIC for fluconazole/ITC-resistant Candida albicans ATCC MYA-1003; type: toxicity; conditions: mouse red blood cells (RBC), read-out: Selectivity Index
# [31] = Selectivity index, ratio of compound concentration showing <20 to <30% hemolysis in mouse RBC to MIC for fluconazole/ITC-resistant Candida albicans ATCC 10231; type: toxicity; conditions: red blood cells (erythrocytes), read-out: Selectivity Index
# [32] = tested on: Enterococcus; assay: Antibacterial activity against vancomycin-resistant Enterococcus; type: functional, organism-based
# [33] = Hemolytic activity in mouse RBC at 7.8 ug/ml after 1 hr relative to control; type: ADME, cell-based, Erythrocyte; conditions: red blood cells (erythrocytes), read-out: Activity
# [34] = tested on: Aspergillus nidulans; assay: Antifungal activity against Aspergillus nidulans ATCC 38163 measured after 48 hrs by CLSI M38-A2 protocol based method; type: functional; conditions: ATCC 38163, 48 h
# [35] = tested on: Nakaseomyces glabratus; assay: Antifungal activity against Candida glabrata ATCC 2001 measured after 48 hrs by CLSI M27-A3 protocol based method; type: functional; conditions: CBS 138, 48 h
# [36] = Selectivity index, ratio of compound concentration showing <20 to <30% hemolysis in mouse RBC to MIC for fluconazole/ITC-resistant Candida albicans ATCC 64124; type: toxicity; conditions: red blood cells (erythrocytes), read-out: Selectivity Index
# [37] = Selectivity index, ratio of compound concentration showing <20 to <30% hemolysis in mouse RBC to MIC for Candida krusei ATCC 6258; type: toxicity; conditions: mouse red blood cells (RBC), read-out: Selectivity Index
# [38] = Selectivity index, ratio of CC50 for human A549 cells to MIC for Candida parapsilosis ATCC 22019; type: toxicity; conditions: read-out: Selectivity Index
# [39] = Hemolytic activity in mouse RBC at 62.5 ug/ml after 1 hr relative to control; type: ADME, cell-based, Erythrocyte; conditions: red blood cells (erythrocytes), read-out: Activity
# [40] = tested on: Candida albicans; assay: Antifungal activity against fluconazole/ITC-resistant Candida albicans ATCC 90819 measured after 48 hrs by CLSI M27-A3 protocol based method; type: functional; conditions: ATCC 90819, 48 h
# [41] = target: Voltage-gated inwardly rectifying potassium channel KCNH2 (Homo sapiens, UniProt Q12809); assay: Inhibition of [3H]-dofetilide binding to human ERG expressed in HEK293 cell membranes measured after 1 hr by liquid scintillation counting method
# [42] = Selectivity index, ratio of CC50 for human A549 cells to MIC for fluconazole/ITC-resistant Candida albicans ATCC 64124; type: toxicity; conditions: read-out: Selectivity Index
# [43] = Selectivity index, ratio of compound concentration showing <20 to <30% hemolysis in mouse RBC to MIC for Aspergillus flavus ATCC MYA-3631; type: toxicity; conditions: mouse red blood cells (RBC), read-out: Selectivity Index
# [44] = Selectivity index, ratio of CC50 for human A549 cells to MIC for Aspergillus flavus ATCC MYA-3631; type: toxicity; conditions: read-out: Selectivity Index
# [45] = Selectivity index, ratio of compound concentration showing <20 to <30% hemolysis in mouse RBC to MIC for fluconazole/ITC-resistant Candida albicans ATCC MYA-1237; type: toxicity; conditions: mouse red blood cells (RBC), read-out: Selectivity Index
# [46] = tested on: Candida albicans; assay: Antifungal activity against fluconazole/ITC-resistant Candida albicans ATCC MYA-1003 measured after 48 hrs by CLSI M27-A3 protocol based method; type: functional; conditions: ATCC MYA-1003, 48 h
# [47] = tested on: Candida albicans; assay: Antifungal activity against fluconazole/ITC-resistant Candida albicans ATCC MYA-1237 measured after 48 hrs by CLSI M27-A3 protocol based method; type: functional; conditions: ATCC MYA-1237, 48 h
# [48] = Selectivity index, ratio of compound concentration showing <20 to <30% hemolysis in mouse RBC to MIC for Candida glabrata ATCC 2001; type: toxicity; conditions: mouse red blood cells (RBC), read-out: Selectivity Index
# [49] = Selectivity index, ratio of CC50 for human A549 cells to MIC for fluconazole/ITC-resistant Candida albicans ATCC 10231; type: toxicity; conditions: read-out: Selectivity Index
# [50] = Hemolytic activity in mouse RBC at 1.95 ug/ml after 1 hr relative to control; type: ADME, cell-based, Erythrocyte; conditions: red blood cells (erythrocytes), read-out: Activity
# [51] = Selectivity index, ratio of CC50 for human A549 cells to MIC for fluconazole/ITC-susceptible Candida albicans ATCC MYA-2310; type: toxicity; conditions: read-out: Selectivity Index
# [52] = tested on: Staphylococcus aureus; assay: Antibacterial activity against methicillin-resistant Staphylococcus aureus; type: functional, organism-based
# Chain of Voltage-gated inwardly rectifying potassium channel KCNH2 (Q12809 whole entry): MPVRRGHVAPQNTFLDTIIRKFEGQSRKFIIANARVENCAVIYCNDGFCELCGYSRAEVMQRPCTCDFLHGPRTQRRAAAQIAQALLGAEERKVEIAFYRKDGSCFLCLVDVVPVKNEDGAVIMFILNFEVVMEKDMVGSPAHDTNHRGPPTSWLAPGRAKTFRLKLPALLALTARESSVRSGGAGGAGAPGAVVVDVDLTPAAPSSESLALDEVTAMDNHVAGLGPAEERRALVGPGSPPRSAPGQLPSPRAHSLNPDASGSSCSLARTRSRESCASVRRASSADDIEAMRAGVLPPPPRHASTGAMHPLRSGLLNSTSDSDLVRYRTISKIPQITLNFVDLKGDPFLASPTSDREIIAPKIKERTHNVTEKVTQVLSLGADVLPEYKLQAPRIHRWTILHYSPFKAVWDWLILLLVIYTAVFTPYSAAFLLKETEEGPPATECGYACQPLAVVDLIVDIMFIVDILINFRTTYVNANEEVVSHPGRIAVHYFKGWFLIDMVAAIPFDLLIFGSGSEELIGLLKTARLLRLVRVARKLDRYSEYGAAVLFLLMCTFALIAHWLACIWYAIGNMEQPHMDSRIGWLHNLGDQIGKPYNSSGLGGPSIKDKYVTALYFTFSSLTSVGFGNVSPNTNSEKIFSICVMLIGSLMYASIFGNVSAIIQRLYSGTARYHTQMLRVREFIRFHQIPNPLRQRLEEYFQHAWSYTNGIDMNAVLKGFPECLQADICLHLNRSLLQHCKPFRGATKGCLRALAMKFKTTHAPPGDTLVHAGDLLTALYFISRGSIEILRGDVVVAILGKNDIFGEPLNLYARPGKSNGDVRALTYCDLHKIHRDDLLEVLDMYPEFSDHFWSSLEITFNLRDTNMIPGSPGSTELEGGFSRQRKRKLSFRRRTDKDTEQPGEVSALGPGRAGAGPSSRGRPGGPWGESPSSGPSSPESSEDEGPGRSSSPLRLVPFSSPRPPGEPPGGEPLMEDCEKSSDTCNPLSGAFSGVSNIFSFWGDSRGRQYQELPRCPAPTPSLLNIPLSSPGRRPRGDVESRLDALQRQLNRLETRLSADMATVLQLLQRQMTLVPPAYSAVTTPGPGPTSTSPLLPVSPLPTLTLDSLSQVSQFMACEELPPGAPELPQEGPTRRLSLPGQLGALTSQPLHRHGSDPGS
compound,measurement,setting,value
Fc1ccc(N/N=C/c2ccc(-c3cccc(/C=N/Nc4ccc(F)cc4)c3)cc2)cc1,CC50,[1],> 31 µg/mL
same,CC50,[2],> 31 µg/mL
same,selectivity ratio,[3],2
same,MIC,[4],1.95 to 3.9 µg/mL
same,"hemolysis at 1 h, 3.9 ug/ml",[5],4.3%
same,selectivity ratio,[6],8
same,selectivity ratio,[7],1 to 32
same,"hemolysis at 1 h, […]",[8],0.1%
same,Activity,[9],inactive
same,selectivity ratio,[10],1 to 32
same,MIC,[11],31.3 µg/mL
same,selectivity ratio,[12],1 to 32
same,selectivity ratio,[13],1
same,selectivity ratio,[14],1 to 32
same,MIC,[15],15.6 µg/mL
same,MIC,[16],> 31.3 µg/mL
same,"hemolysis at 1 h, 31.3 ug/ml",[17],14.4%
same,selectivity ratio,[18],1 to 32
same,selectivity ratio,[19],1
same,"hemolysis at 1 h, 15.6 ug/ml",[20]; at 15.6 µg/mL,9.9%
same,"hemolysis at 1 h, 0.975 ug/ml",[20],0%
same,MIC,[21],7.8 µg/mL
same,selectivity ratio,[22],1
same,MIC,[23],15.6 µg/mL
same,selectivity ratio,[24],1
same,MIC,[25],> 31.3 µg/mL
same,selectivity ratio,[26],8
same,selectivity ratio,[27],1 to 32
same,selectivity ratio,[28],4
same,MIC,[29],7.8 µg/mL
same,selectivity ratio,[30],1 to 32
same,selectivity ratio,[31],1 to 32
same,Activity,[32],inactive
same,"hemolysis at 1 h, 7.8 ug/ml",[33],9.5%
same,MIC,[34],3.9 µg/mL
same,MIC,[35],> 31.3 µg/mL
same,selectivity ratio,[36],1 to 32
same,selectivity ratio,[37],1 to 32
same,selectivity ratio,[38],1
same,"hemolysis at 1 h, 62.5 ug/ml",[39],26.1%
same,MIC,[40],> 31.3 µg/mL
same,IC50,[41],> 30 µM
same,selectivity ratio,[42],2
same,selectivity ratio,[43],1 to 32
same,selectivity ratio,[44],2
same,selectivity ratio,[45],1 to 32
same,MIC,[46],3.9 µg/mL
same,MIC,[47],15.6 µg/mL
same,selectivity ratio,[48],1 to 32
same,selectivity ratio,[49],16
same,"hemolysis at 1 h, 1.95 ug/ml",[50],6%
same,selectivity ratio,[51],4
same,Activity,[52],inactive
